The results in this text go back to patent US9359337B2, “Acetamide derivatives” (Hoffmann-La Roche Inc., priority 2012, dated 2016).

Chain of h-TRPA1 (O75762 whole entry): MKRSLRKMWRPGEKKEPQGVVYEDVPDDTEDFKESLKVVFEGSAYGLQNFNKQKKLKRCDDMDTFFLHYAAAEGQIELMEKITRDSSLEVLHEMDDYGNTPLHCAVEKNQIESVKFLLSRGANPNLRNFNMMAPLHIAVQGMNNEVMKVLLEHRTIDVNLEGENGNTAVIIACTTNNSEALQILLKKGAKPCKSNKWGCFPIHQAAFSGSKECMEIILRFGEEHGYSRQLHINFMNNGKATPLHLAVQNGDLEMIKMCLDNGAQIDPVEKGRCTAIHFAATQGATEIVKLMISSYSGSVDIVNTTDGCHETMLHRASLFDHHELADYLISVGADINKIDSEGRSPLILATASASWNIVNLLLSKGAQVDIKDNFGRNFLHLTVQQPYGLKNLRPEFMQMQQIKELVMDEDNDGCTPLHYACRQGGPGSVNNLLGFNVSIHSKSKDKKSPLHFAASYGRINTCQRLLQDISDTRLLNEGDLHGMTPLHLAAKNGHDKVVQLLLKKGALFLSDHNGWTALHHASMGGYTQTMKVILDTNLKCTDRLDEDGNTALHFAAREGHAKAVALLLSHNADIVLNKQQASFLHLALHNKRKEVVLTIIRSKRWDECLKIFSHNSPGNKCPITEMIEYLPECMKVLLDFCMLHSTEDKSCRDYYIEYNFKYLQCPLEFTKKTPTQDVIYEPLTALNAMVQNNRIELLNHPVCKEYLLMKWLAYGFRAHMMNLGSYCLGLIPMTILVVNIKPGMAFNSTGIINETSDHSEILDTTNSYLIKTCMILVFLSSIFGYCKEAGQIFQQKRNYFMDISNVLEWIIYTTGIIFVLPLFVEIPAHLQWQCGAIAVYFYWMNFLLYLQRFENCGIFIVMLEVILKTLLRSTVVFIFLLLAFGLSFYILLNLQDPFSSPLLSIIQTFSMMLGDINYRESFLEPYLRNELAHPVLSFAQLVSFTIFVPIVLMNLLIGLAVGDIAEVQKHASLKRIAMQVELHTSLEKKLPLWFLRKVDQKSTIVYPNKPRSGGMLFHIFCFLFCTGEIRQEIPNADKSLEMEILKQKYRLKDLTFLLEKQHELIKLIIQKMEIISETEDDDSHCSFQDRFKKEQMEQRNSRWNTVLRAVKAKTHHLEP

The assay has as its target h-TRPA1 (Homo sapiens (Human), UniProt O75762). As to the kind of experiment: Dose response calcium flux (FLIPR) assay, ChanTest hTRPA1-CHO stably transfected cell line. The format is cell-based. The note with it: CHO-K1 Tet-on TRPA1 cells; calcium flux after cinnamaldehyde 100 uM agonist; 30 min compound preincubation. Here is the method: Dose Response Assay: ChanTest hTRPA1-CHO Stably Transfected Cell Line
To induce expression, tetracycline was added to blasticidin/zeocin-free media at a final concentration of 1 ug/ml. Experiments were run at 24 hours post induction.
• Harvested cells with 0.025% trypsin/EDTA. • Resuspended cells in growth media without selection antibiotics. • Measured cell density and diluted to 2.4×10^5 cells/ml in media containing 1 ug/ml Doxycycline Plate 25 ul/well into 384 well black/clear tissue culture-treated plates. • Incubated overnight at 37° C. Calcium Flux Assay: Day of Assay: Reagents: • Replacement Buffer: Hank's Balanced Salt Solution, 20 mM HEPES along with 0.005% BSA and 2× Probenecid • Dye Loading Buffer: Cal-3 NW Calcium dye was prepared by dissolving the contents of one vial with […] Hank's Balanced Salt Solution containing 20 mM HEPES. Control Compounds for CHOK1/TRPA1 Cells: • AP-18, stock 10 mM, prepare 3.5× compound dilution in a Compound Buffer (HBSS/20 mM HEPES/0.005% BSA)—final concentration 10 uM. Preparation of Cinnamaldehyde (Agonist Addition): • FW=132.16 • Specific gravity=1.046 gm/cc • 1.32 gm/1.046 gm/cc=1.26 ml of stock • Add 1.74 ml DMSO=3.3 M stock • Working solution 4.5× (final 100 uM in Compound Buffer: HBSS/20 mM HEPES/0.005% BSA) Compounds dilutions were prepared from 5 or 10 mM stock (100% DMSO):
Compounds were tested at either 20 μM three folds dilution 11 steps out or 30 μM two folds dilution 11 steps out.
Growth media was removed from the cell plates (20 ul) and 20 ul of the Replacement Buffer was added followed by addition of 25 ul of diluted dye. All three steps were performed using a Plate Washer BioTek 407. The plates were then incubated for 30′ at RT.
After incubation, both the cell and compound plates were brought to the FLIPR and 20 ul of the diluted compounds/antagonist/bk were transferred to the cell plates by the FLIPR. Plates were then incubated for 30′ at room temperature. After 30′ incubation, plates were returned to the FLIPR and 20 ul of 4.5× Cinnamaldehyde was added to the cell plates. During the compound addition as well as agonist addition, fluorescence readings were taken simultaneously from all 384 wells of the cell plate every 1.5 seconds. Five readings were taken to establish a stable baseline, then 20 ul of sample was rapidly (30 ul/sec) and simultaneously added to each well of the cell plate. The fluorescence was continuously monitored before, during and after sample/agonist addition for a total elapsed time of 100 seconds (compound addition) and 120 seconds (agonist addition). Responses (increase in peak fluorescence) in each well following agonist addition was determined. The initial fluorescence reading from each well, prior to ligand stimulation, was used a zero baseline value for the data from that well.
For orientation: Calcium assays in cells follow changes in intracellular calcium, usually with a dye or a luminescent sensor.
For orientation: IC50 means the concentration that inhibits the measured activity by half. As for `CCN(CC(=O)NCC1CCN(c2ccc(C(F)(F)F)cc2)C1)S(=O)(=O)c1ccc(F)cc1` (centres unmarked) [Example 3, 2-[Ethyl-(4-fluoro-benzenesulfonyl)-amino]-N-[1-(4-trifluoromethyl-phenyl)-pyrrolidin-3-ylmethyl]-acetamide], the half-inhibitory concentration (IC50) was 634 nM.
Take `CCN(CC(=O)NCC1CCCN(c2ccc(C(F)(F)F)cc2)C1)S(=O)(=O)c1ccc(F)cc1` (centres unmarked) [Example 1, 2-[Ethyl-(4-fluoro-benzenesulfonyl)-amino]-N-[1-(4-trifluoromethyl-phenyl)-piperidin-3-ylmethyl]-acetamide]: the concentration for half-maximal inhibition (IC50) turned out to be 494 nM.
In the case of `CC(C)N(CC(=O)NCC1CN(c2ccc(C(F)(F)F)cc2)CCO1)S(=O)(=O)c1ccc(F)cc1` (racemic) [Example 8, 2-[(4-Fluoro-benzenesulfonyl)-isopropyl-amino]-N-[4-(4-trifluoromethyl-phenyl)-morpholin-2-ylmethyl]-acetamide] it was 193 nM; in that of `CC(C)N(CC(=O)NC[C@@H]1CCCN(c2ccc(C(F)(F)F)cc2)C1)S(=O)(=O)c1ccc(F)cc1` [Example 5, 2-[(4-Fluoro-benzenesulfonyl)-isopropyl-amino]-N—[(S)-1-(4-trifluoromethyl-phenyl)-piperidin-3-ylmethyl]-acetamide], 307 nM; in that of `CC(C)N(CC(=O)NC[C@H]1CCCN(c2ccc(C(F)(F)F)cc2)C1)S(=O)(=O)c1ccc(F)cc1` [Example 6, 2-[(4-Fluoro-benzenesulfonyl)-isopropyl-amino]-N—[(R)-1-(4-trifluoromethyl-phenyl)-piperidin-3-ylmethyl]-acetamide], 504 nM.
In the case of `CC(C)N(CC(=O)NCC1CCN(c2ccc(C(F)(F)F)cc2)C1)S(=O)(=O)c1ccc(F)cc1` (centres unmarked) [Example 4, 2-[(4-Fluoro-benzenesulfonyl)-isopropyl-amino]-N-[1-(4-trifluoromethyl-phenyl)-pyrrolidin-3-ylmethyl]-acetamide] it was 425 nM; in that of `CC(C)N(CC(=O)NC[C@@H]1CN(c2ccc(C(F)(F)F)cc2)CCO1)S(=O)(=O)c1ccc(F)cc1` [Example 10, 2-[(4-Fluoro-benzenesulfonyl)-isopropyl-amino]-N—[(R)-4-(4-trifluoromethyl-phenyl)-morpholin-2-ylmethyl]-acetamide], 1310 nM.
In the case of `CCN(CC(=O)NCC1CN(c2ccc(C(F)(F)F)cc2)CCO1)S(=O)(=O)c1ccc(F)cc1` (centres unmarked) [Example 9, 2-[Ethyl-(4-fluoro-benzenesulfonyl)-amino]-N-[4-(4-trifluoromethyl-phenyl)-morpholin-2-ylmethyl]-acetamide] it was 226 nM.
Regarding `CC(C)N(CC(=O)NCC1CCCN(c2ccc(C(F)(F)F)cc2)C1)S(=O)(=O)c1ccc(F)cc1` (racemic) [Example 2, 2-[(4-Fluoro-benzenesulfonyl)-isopropyl-amino]-N-[1-(4-trifluoromethyl-phenyl)-piperidin-3-ylmethyl]-acetamide], the IC50 came to 233 nM.
In the case of `CC(C)N(CC(=O)NC[C@H]1CN(c2ccc(C(F)(F)F)cc2)CCO1)S(=O)(=O)c1ccc(F)cc1` [Example 11, 2-[(4-Fluoro-benzenesulfonyl)-isopropyl-amino]-N—[(S)-4-(4-trifluoromethyl-phenyl)-morpholin-2-ylmethyl]-acetamide] it was 151 nM; in that of `CC(C)N(CC(=O)NCC1CN(c2ccc(C(F)(F)F)cn2)CCO1)S(=O)(=O)c1ccc(F)cc1` (centres unmarked) [Example 12, 2-[(4-Fluoro-benzenesulfonyl)-isopropyl-amino]-N-[4-(5-trifluoromethyl-pyridin-2-yl)-morpholin-2-ylmethyl]-acetamide], 385 nM.
